Laboratory results published in patent US7205296B2, “Substituted 2H-1,3-benzoxazin-4(3H)-ones” (Portola Pharmaceuticals, Inc., priority 2004, dated 2007).

Assays:
platelet ADP receptors = target: T1, platelet ADP receptors (Homo sapiens, UniProt Q9H244); test: ARB assay: inhibition of [3H]2-MeS-ADP binding to platelets; conditions: IC50 class, [3H]2-MeS-ADP binding to whole human platelets
T1 construct: endogenous in cells; host or cells: whole apyrase-washed human platelets (outdated from blood banks, or fresh)
T1 sequence (Q9H244 whole entry): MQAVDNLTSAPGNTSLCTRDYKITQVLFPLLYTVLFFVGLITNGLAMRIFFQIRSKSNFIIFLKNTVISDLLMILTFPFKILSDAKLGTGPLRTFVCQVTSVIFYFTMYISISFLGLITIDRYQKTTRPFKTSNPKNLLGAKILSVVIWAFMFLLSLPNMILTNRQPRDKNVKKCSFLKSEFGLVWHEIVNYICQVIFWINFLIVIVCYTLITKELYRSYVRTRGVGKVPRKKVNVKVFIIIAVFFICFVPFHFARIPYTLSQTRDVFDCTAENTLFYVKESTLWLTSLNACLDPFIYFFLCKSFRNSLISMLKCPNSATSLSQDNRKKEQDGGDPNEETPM
Protocol: II. Inhibition of [^3H]2-MeS-ADP Binding to Platelets
Utilizing the second assay the potency of inhibition of such compounds with respect to [^3H]2-MeS-ADP binding to whole platelets is determined. [^3H]2-MeS-ADP binding experiments are routinely performed with outdated human platelets collected by standard procedures at hospital blood banks. Apyrase-washed outdated platelets are prepared as follows (all steps at room temperature, if not indicated otherwise):
Outdated platelet suspensions are diluted with 1 volume of CGS and platelets pelleted by centrifugation at 1900×g for 45 minutes. Platelet pellets are resuspended at 3-6×10^9 platelets/ml in CGS containing 1 U/ml apyrase (grade V, Sigma, St. Louis, Mo.) and incubated for 15 minutes at 37° C. After centrifugation at 730×g for 20 minutes, pellets are resuspended in Hepes-Tyrode's buffer containing 0.1% BSA (Sigma, St. Louis, Mo.) at a concentration of 6.66×10^8 platelets/ml. Binding experiments are performed after >45 minutes resting of the platelets.
Alternatively, binding experiments are performed with fresh human platelets prepared as described in I. (Inhibition of ADP-Mediated Platelet Aggregation in vitro), except that platelets are resuspended in Hepes-Tyrode's buffer containing 0.1% BSA (Sigma, St. Louis, Mo.) at a concentration of 6.66×10^8 platelets/ml. Very similar results are obtained with fresh and outdated platelets.
A platelet ADP receptor binding assay using the tritiated potent agonist ligand [^3H]2-MeS-ADP (Jantzen, H. M. et al. (1999) Thromb. Hemost. 81:111–117) has been adapted to the 96-well microtiter format. In an assay volume of 0.2 ml Hepes-Tyrode's buffer with 0.1% BSA and 0.6% DMSO, 1×10^8 apyrase-washed platelets are preincubated in 96-well flat bottom microtiter plates for 5 minutes with serial dilutions of test compounds before addition of 1 nM [^3H]2-MeS-ADP ([^3H]2-methylthioadenosine-5′-diphosphate, ammonium salt; specific activity 48–49 Ci/mmole, obtained by custom synthesis from Amersham Life Science, Inc., Arlington Heights, Ill., or NEN Life Science Products, Boston, Mass.). Total binding is determined in the absence of test compounds. Samples for nonspecific binding may contain 10^−5 M unlabelled 2-MeS-ADP (RBI, Natick, Mass.). After incubation for 15 minutes at room temperature, unbound radioligand is separated by rapid filtration and two washes with cold (4–8° C.) Binding Wash Buffer (10 mM Hepes pH 7.4, 138 mM NaCl) using a 96-well cell harvester (Minidisc 96, Skatron Instruments, Sterling, Va.) and 8×12 GF/C glassfiber filtermats (Printed Filtermat A, for 1450 Microbeta, Wallac Inc., Gaithersburg, Md.). The platelet-bound radioactivity on the filtermats is determined in a scintillation counter (Microbeta 1450, Wallac Inc., Gaithersburg, Md.). Specific binding is determined by […] binding, and specific binding in the presence of test compounds is expressed as % of specific binding in the absence of test compounds dilutions.

[1] = system: ADP-induced human platelet aggregation; test: PRP assay: inhibition of ADP-mediated platelet aggregation in vitro; assay type: cell-based; conditions: IC50 class
Protocol: I. Inhibition of ADP-Mediated Platelet Aggregation in vitro
The effect of testing the compound according to the invention on ADP-induced human platelet aggregation is preferably assessed in 96-well microtiter assay (see generally the procedures in Jantzen, H. M. et al. (1999) Thromb. Hemost. 81:111–117). Human venous blood is collected from healthy, drug-free volunteers into ACD (85 mM sodium citrate, 111 mM glucose, 71.4 mM citric acid) containing PGI2 (1.25 ml ACD containing 1.6 μM PGI2/10 ml blood; PGI2 was from Sigma, St. Louis, Mo.). Platelet-rich plasma (PRP) is prepared by centrifugation at 160×g for 20 minutes at room temperature. Washed platelets are prepared by centrifuging PRP for 10 minutes at 730×g and resuspending the platelet pellet in CGS (13 mM sodium citrate, 30 mM glucose, 120 mM NaCl; 2 ml CGS/10 ml original blood volume) containing 1 U/ml apyrase (grade V, Sigma, St. Louis, Mo.). After incubation at 37° C. for 15 minutes, the platelets are collected by centrifugation at 730×g for 10 minutes and resuspended at a concentration of 3×10^8 platelets/ml in Hepes-Tyrode's buffer (10 mM Hepes, 138 mM NaCl, 5.5 mM glucose, 2.9 mM KCl, 12 mM NaHCO3, pH 7.4) containing 0.1% bovine serum albumin, 1 mM CaCl2 and 1 mM MgCl2. This platelet suspension is kept >45 minutes at 37° C. before use in aggregation assays.
Inhibition of ADP-dependent aggregation is preferably determined in 96-well flat-bottom microtiter plates using a microtiter plate shaker and plate reader similar to the procedure described by Frantantoni et al., Am. J. Clin. Pathol. 94, 613 (1990). All steps are performed at room temperature. The total reaction volume of 0.2 ml/well includes in Hepes-Tyrodes buffer/0.1% BSA: 4.5×10^7 apyrase-washed platelets, 0.5 mg/ml human fibrinogen (American Diagnostica, Inc., Greenwich, Conn.), serial dilutions of test compounds (buffer for control wells) in 0.6% DMSO. After about 5 minutes preincubation at room temperature, ADP is added to a final concentration of 2 μM which induces submaximal aggregation. Buffer is added instead of ADP to one set of control wells (ADP^− control). The OD of the samples is then determined at 490 nm using a microtiter plate reader (Softmax, Molecular Devices, Menlo Park, Calif.) resulting in the 0 minute reading. The plates are then agitated for 5 min on a microtiter plate shaker and the 5 minute reading is obtained in the plate reader. Aggregation is calculated from the decrease of OD at 490 nm at t=5 minutes compared to t=0 minutes and is expressed as % of the decrease in the ADP control samples after correcting for changes in the unaggregated control samples.

Structure (SMILES): CNc1cc2c(cc1F)C(=O)N(c1ccc(C(=O)NS(=O)(=O)c3ccc(Cl)s3)c(F)c1)CO2 [Example 57, N-(5-chlorothiophen-2-ylsulfonyl)-2-fluoro-4-(6-fluoro-7-(methylamino)-4-oxo-2H-benzo[e][1,3]oxazin-3(4H)-yl) benzamide]
- IC50 (platelet ADP receptors): < 0.05 µM
- IC50 [1]: > 30 µM
